Results on one molecule are retold here after patent publication US8729133B2, “Method for treating cancer” (Cornell University, priority 2006, dated 2014).

The structures appear in SMILES notation.

Assay [1] relates to brain metastases. As to the kind of experiment: Randomized study: whole brain radiotherapy with or without oral L-Arginine hydrochloride in patients with unresectable brain metastases (response, survival). It counts as in vivo, human. As to the method:
(§1) L-Arginine hydrochloride was orally administered five times a week, Monday to Friday, during the radiation therapy (RT) course at a dose of about 10 grams dissolved/mixed with about 100 ml of water and administered to a patient/host from about 15-55 to about 20-65 minutes before each fraction of RT. Radiation therapy was administered to patients using techniques known to one skilled in the art of treating cancer patients. After administering L-Arginine hydrochloride to a patient as discussed above, change in lactate levels in the tumor cells was monitored by localized ^1H NMR spectroscopy and compared to those who received placebo.
Patients with imagenologically proven brain metastases and histologically proven primary or metastatic cancer were eligible for the study. The eligibility criteria included the following: RPA-RTOG class II, measurable brain lesion/s by contrast-enhanced CT or MRI, absolute granulocyte count >2000/mm^3, hemoglobin […] (patients with lower levels were transfused), normal renal (serum creatinine <1.5 mg/dL and 24-h creatinine clearance >60 mL/min) and hepatic functions (aspartate aminotransferase and alanine aminotransferase <2.5 times the upper limit of normal) and no prior treatment for brain metastases. A neurosurgeon examined all eligible patients and their complimentary studies to determine whether their metastases were resectable. Eligible patients with unresectable metastases were randomized.
The present study was performed in accordance with the ethical standards of the Helsinki Declaration. Within two weeks after the diagnosis of brain metastases, eligible patients were randomly assigned to receive whole brain radiotherapy alone (the control group) or L-Arginine monochlorohydrate (L-Arginine Hydrochloride, L-A-HCl) and whole brain radiotherapy. L-Arginine was orally administered, once a day Monday to Friday, during the radiation therapy (RT) course at a dose of about 10 grams, immediately reconstituted with 100 ml of water and given about 55 to 65 minutes before each fraction of RT.
During RT, all patients were irradiated with ^60Co beams. The whole-brain, of all the individuals enrolled in the study, was treated by two lateral fields to a total dose of 32 Gy in 20 fractions of 1.6 Gy each two times a day with a 6 hours interval between treatments (10 days), followed by a 22.4 Gy boost over the evident lesions with the same fractionation schedule (7 days). The spinal cord dose was limited to 40 Gy.
The baseline evaluation included a complete history and physical examination, brain contrast-enhanced CT scans and/or MRI scans, chest radiographs, blood counts, blood chemistry and electrocardiography. A Mini Mental Status Exam (MMSE) was performed for screening intellectual impairment. During the treatment, patients were to be seen three times a week, then weekly for up to one month after finishing radiotherapy, and then monthly until the patient died. All patients were followed up, by the radiation and medical oncology research physicians, without further treatment.
The following criteria defined radiological response and progression. Complete response was defined as a disappearance of all brain lesions seen on contrast-enhanced CT or MRI scans for at least 1 month. Partial response required at least a 50% decrease in brain lesions for at least 1 month. Stable disease was defined as any brain lesion with shrinkage less than 50% or growth less than 25%. Disease progression was defined as any brain lesion in the brain that enlarged more than 25% or any new brain lesion. For measurable disease, standard bi-perpendicular diameters of the two-dimensional tumor image at maximum dimension were applied.
The following criteria defined symptomatic response and progression. Complete response was defined as disappearance of all neurological-related signs or symptoms seen during a physical exam for at least 1 month, with stable or decreasing steroid dose. […]

Assay [2] deals with lactate levels in brain metastases tumors. Description: Tumor lactate determination by localized 1H MR spectroscopy before and after oral L-Arginine. It counts as in vivo, human. As to the method: as §1
Single-voxel MR spectroscopic data were obtained by using a double-SE point-resolved spectroscopy (PRESS) sequence with one-pulse water signal suppression mainly from metabolically active fleshy parts (contrast-enhanced areas) of the lesions, while avoiding contamination from scalp fat. Appropriate automatic shimming and water suppression were achieved by using 4-8-Hz line width, 1-kHz spectral width, and the automated software developed by the manufacturer. Spectroscopic data from cubic volumes of 1.5×1.5×1.5-2×2×3 cm were obtained by using the PRESS sequence with 1500/135 ms (TR/TE), 128-256 averages, 1024 data points, and 4000-Hz spectrum width. In most examinations, a voxel size of 2×2×2 cm3 was employed.
The time domain signal intensity was apodized and processed to remove the residual water signal. Post-processing of the spectroscopic data consisted of frequency shift and phase and linear baseline corrections after Fourier transformation. […] Lactate (Lac) peak was calculated at 1.35 ppm (an inverted β-methyl doublet). […] Lactate values were calculated automatically from the area under the peak by using the standard commercial software program provided by the manufacturer.
L-A-HCl was administered (as stated) to 30 patients with unresectable brain metastases. […] Patients were assessed by brain NMR and/or TC (to asses tumor response) and proton magnetic spectroscopy (to determine the metabolic profile of tumors). […]

Setting [3] is: 30 patients with unresectable brain metastases vs 30 placebo.

For `Cl.N=C(N)NCCC[C@H](N)C(=O)O` [L-Arginine, S(+)-2-Amino-5-[(aminoiminomethyl)amino]pentanoic acid monohydrochloride], in assay [1] (setting [3]), the “survival compared to placebo” value is “higher” and the “tumoral response rates compared to placebo” value is given as “higher”. For the same molecule, in assay [1] (RT-Arginine n = 22), the “Overall Response: Complete” value was 6 number of patients, the “Overall Response: Partial” value is 13 number of patients, the “Overall Response: Stable Disease” value is 2 (9%) number of patients (%) and the “Radiologic Response: Complete” value is 6 number of patients. Besides, in assay [1] (RT-Arginine n = 22), the “Radiologic Response: Partial” value is on record as 13 number of patients, the “Radiologic Response: Progressive Disease” value was 0 number of patients, the “Radiologic Response: Stable Disease” value is recorded as 2 (9%) number of patients (%) and the “Symptomatic Response: Complete” value is recorded as 20 number of patients. Further, in assay [1] (RT-Arginine n = 22), the “Symptomatic Response: Partial” value was 1 number of patients, the “Symptomatic Response: Progressive Disease” value was 0 (0%) number of patients (%) and the “Symptomatic Response: Stable Disease” value is given as 1 (5%) number of patients (%). The “Overall Response: Total responses” value in assay [1] (RT-Arginine n = 22, ECOG response guidelines) is recorded as 18 (81%) number of patients (%). Also, the “Symptomatic Response: Total responses” value in assay [1] (RT-Arginine n = 22, about 10 grams orally before each RT fraction) is 21 (95%) number of patients (%). Also, in assay [1] (RT-Arginine n = 22, contrast-enhanced CT or MRI), the “Radiologic Response: Total responses” value is listed as 18 (81%) number of patients (%). Moreover, the “Overall Response: Progressive Disease” value in assay [1] (RT-Arginine n = 22, not assessed counted as progressive) is given as 1 (5%) number of patients (%). Further, the “Radiologic Response: Not assessed” value in assay [1] (RT-Arginine n = 22, patients without follow-up scan) is 1 (5%) number of patients (%). Moreover, the median survival time in assay [1] (patients with brain metastases, about 10 grams L-Arginine orally, Kaplan-Meier (FIG. 1), placebo 2 months) stood at 8 months. The “metabolic pattern of the tumors by spectroscopy” value in assay [2] (about 10 grams orally, in about 60 minutes) is “favorably modified”. In addition, the “drop of lactate levels in tumors” value in assay [2] (brain metastases, about 60 minutes after about 10 grams orally, NMR (FIG. 2), placebo about 10%) is “about 50%”. Further, the “lactate peak in tumor NMR spectrum after vs before administration” value in assay [2] (brain metastasis, about 60 minutes after about 10 grams orally) was “decrease”.
